Here are results for three molecules from patent EP4806899A1, “FUSED RING DERIVATIVE, PREPARATION METHOD THEREFOR AND USE THEREOF IN MEDICINE” (Shanghai Qilu Pharmaceutical Research and Development …, priority 2023, dated 2025).

In one data set the target is T1, human CYP11B1 enzyme (Homo sapiens, UniProt P15538).
T1 construct: the ORF of human CYP11B1 or CYP11B2 were transfected into G402 cells; expressed in transfected cells
T1 sequence (P15538 25-503): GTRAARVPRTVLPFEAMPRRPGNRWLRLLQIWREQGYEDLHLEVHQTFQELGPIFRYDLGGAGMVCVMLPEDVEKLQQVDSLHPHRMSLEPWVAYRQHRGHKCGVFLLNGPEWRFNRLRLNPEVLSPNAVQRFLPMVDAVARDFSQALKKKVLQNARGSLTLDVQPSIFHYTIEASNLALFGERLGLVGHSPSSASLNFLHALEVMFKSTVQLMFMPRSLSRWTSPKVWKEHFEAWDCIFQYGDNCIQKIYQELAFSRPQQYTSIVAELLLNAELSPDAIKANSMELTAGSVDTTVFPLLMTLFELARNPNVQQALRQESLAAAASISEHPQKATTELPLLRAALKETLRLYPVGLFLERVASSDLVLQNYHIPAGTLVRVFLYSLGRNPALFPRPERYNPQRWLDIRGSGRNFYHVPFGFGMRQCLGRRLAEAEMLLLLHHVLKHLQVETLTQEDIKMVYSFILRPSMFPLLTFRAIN
The data set can be described thus: Enzyme inhibition activity assay in G402 cells stably expressing human CYP11B1 (cortisol production from 11-DC, LC/MS). In kind it is cell-based. The note with it: 1 µM 11-DC, 16 hours, cortisol detected. The gist of the method: (§1)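 G402 cells stably expressing human CYP11B2 or CYP11B1, preincubated 1 h with inhibitor in DMEM/F12 plus 2.5% charcoal-stripped FCS, then 16 h with 1 µM 11-DOC or 1 µM 11-DC. Aldosterone or cortisol quantified by LC/MS; IC50 from four-parameter logistic fit versus uninhibited control.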

Data set [1] in a line: Pharmacokinetic determination in monkeys after gavage administration (P.O.). The note with it: cynomolgus monkey, po, 1 mg/kg, plasma. In kind it is in vivo, Cynomolgus monkeys (Macaca fascicularis). Here is the method: Cynomolgus monkeys (Macaca fascicularis) were used as test animals to study the pharmacokinetic behavior of the compounds of the present disclosure in plasma following gavage administration (P.O.). Plasma samples were collected at specific time points, compound concentrations in plasma were detected by LC-MS/MS, and pharmacokinetic parameters were calculated to reflect the pharmacokinetics in cynomolgus monkeys.
Cynomolgus monkeys, male, Ankaiyibo (Zhanjiang) Biotechnology Co., Ltd.
After administration to cynomolgus monkeys, venous blood samples of 0.3 mL were collected at 0.25, 0.5, 1, 2, 4, 8, and 24 hours and placed in EDTA-K2 test tubes. Plasma was separated by centrifugation at 4 °C, 4000 g for 5 minutes and stored at -80 °C.
• 1) 50 µL of plasma sample was precipitated by adding 200 µL of acetonitrile, vortex mixed, and centrifuged for 15 minutes. • 2) The processed supernatant was diluted with water and analyzed by LC/MS/MS to determine the concentration of the test compound.
Pharmacokinetic parameters were calculated using WinNonlin 8.3. Cmax represents the maximum plasma concentration, T1/2 represents the terminal elimination half-life, MRTInf represents the mean residence time, and AUC represents the area under the plasma concentration-time curve. Table 6 Pharmacokinetic Parameters of the Compounds of the Present Disclosure in Monkeys

Another data set has as its target T2, human CYP11B2 enzyme (Homo sapiens, UniProt P19099).
T2 construct: the ORF of human CYP11B1 or CYP11B2 were transfected into G402 cells; expressed in transfected cells
T2 sequence (P19099 25-503): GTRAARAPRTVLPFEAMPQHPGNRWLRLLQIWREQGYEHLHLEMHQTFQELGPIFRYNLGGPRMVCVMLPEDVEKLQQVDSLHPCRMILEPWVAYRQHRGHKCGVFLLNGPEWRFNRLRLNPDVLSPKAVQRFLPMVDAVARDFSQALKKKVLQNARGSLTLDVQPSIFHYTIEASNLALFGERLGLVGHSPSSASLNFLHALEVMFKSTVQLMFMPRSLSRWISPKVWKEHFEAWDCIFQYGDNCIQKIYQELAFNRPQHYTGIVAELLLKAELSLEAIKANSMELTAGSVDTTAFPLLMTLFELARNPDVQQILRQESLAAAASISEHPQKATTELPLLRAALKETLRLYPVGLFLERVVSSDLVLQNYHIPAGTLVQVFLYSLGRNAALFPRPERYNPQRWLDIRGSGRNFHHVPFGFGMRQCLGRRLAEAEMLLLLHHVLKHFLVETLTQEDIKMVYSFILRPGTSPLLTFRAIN
Put plainly: Enzyme inhibition activity assay in G402 cells stably expressing human CYP11B2 (aldosterone production from 11-DOC, LC/MS). In kind it is cell-based. The note with it: 1 µM 11-DOC, 16 hours, aldosterone detected. The gist of the method:
as §1

Data set [2] is described as follows: Pharmacokinetic determination in mice after gavage administration (P.O.). In kind it is in vivo. Particulars: male, CD-1, mouse, po, 10 mg/kg, plasma. Here is the method:
Mice and rats were used as test animals to study the pharmacokinetic behavior of the compounds of the present disclosure in plasma following gavage administration (P.O.). Plasma samples were collected at specific time points, compound concentrations in plasma were detected by LC-MS/MS, and pharmacokinetic parameters were calculated to evaluate the pharmacokinetics.
• Mice, CD-1, male, Zhejiang Vital River Laboratory Animal Technology Co., Ltd. • Rats, Sprague-Dawley, male, Zhejiang Vital River Laboratory Animal Technology Co., Ltd., Shanghai Jihui Experimental Animal Breeding Co., Ltd.
After administration to mice and rats, venous blood samples of 0.03 mL and 0.2 mL, respectively, were collected at 0.0833 (IV), 0.25, 0.5, 1, 2, 4, 8, and 24 hours and placed in EDTA-K2 test tubes. Plasma was separated by centrifugation at 4 °C, 4000 g for 5 minutes and stored at -80 °C.
• 1) 10 µL of plasma sample was precipitated by adding 200 µL of acetonitrile, vortex mixed, and centrifuged for 15 minutes. • 2) The processed supernatant was diluted with water and analyzed by LC/MS/MS to determine the concentration of the test compound.
Pharmacokinetic parameters were calculated using WinNonlin 8.3. The pharmacokinetic parameters for mice P.O. are shown in Table 4, and for rats P.O. in Table 5. Cmax represents the maximum plasma concentration, T1/2 represents the terminal elimination half-life, MRTInf represents the mean residence time, and AUC represents the area under the plasma concentration-time curve. Table 4 Pharmacokinetic Parameters of the Compounds of the Present Disclosure in Mice

A further data set in a line: in vivo. The note with it: male, Sprague-Dawley, rat, plasma, po, 10 mg/kg.
For data set [3] the following is noted: added to existing treatment; within 3 months of treatment; cited from earlier work.

Structures are written as SMILES.

Description for in vivo: Pharmacokinetic parameters were calculated using WinNonlin 8.3. […] Cmax represents the maximum plasma concentration, T1/2 represents the terminal elimination half-life, MRTInf represents the mean residence time, and AUC represents the area under the plasma concentration-time curve.

For orientation: IC50 means the concentration needed to halve the response being measured. High values mean weaker potency, low ones greater potency. One may read the Cmax as the maximum level reached in the sampled fluid or tissue. In general, MRT inf refers to a mean duration of stay, worked out from the concentration-time curve. By half-life is commonly meant the time in which the quantity being followed falls by half. Read a high half-life as slow decline. On human CYP11B1 enzyme, `CCC(=O)N[C@@H]1CCOc2c(-c3ccc4c(c3)cc(C#N)n4C)cncc21` [Compound A10-P2] showed an IC50 of 316 nM. In data set [1] (in vivo), this molecule had a Cmax of 3.28 µM, an MRT inf of 9.14 h and a half-life of 8.48 h. For the same molecule, the AUC(0-t) at 24 h in data set [1] (in vivo, read-out: AUC0-24) is 29.1 µM·h. For the same molecule, inhibition against human CYP11B2 enzyme was half-maximal at 1.8 nM (IC50).

On to `CCC(=O)N[C@@H]1CCCc2c(-c3ccc4c(c3)CCC(=O)N4C)cncc21` [Control Compound, reference compound], for which the values for the highest concentration (Cmax) (in data set [2]; in data set [1] (male); in “in vivo”) were 12.2 µM, 0.834 µM and 11.4 µM, respectively. For the same molecule, the MRT inf in data set [2] amounted to 3.59 h; in “in vivo”, 6.41 h. The half-life in data set [2] is 1.86 h; in “in vivo”, 4.31 h. Also, the AUC(0-t) in data set [2] (read-out: AUC0-24) was determined as 57.3 µM·h; in data set [1] (male, read-out: AUC0-24), 6 µM·h; in the data set “in vivo”, 109 µM·h.

Regarding `CC(=O)S[C@@H]1CC2=CC(=O)CC[C@]2(C)[C@H]2CC[C@@]3(C)[C@@H](CC[C@@]34CCC(=O)O4)[C@H]12` [spironolactone], the “patients with resistant hypertension achieving effective control of blood pressure (systolic blood pressure <135 mm Hg)” value in data set [3] was 60%.
